Assay results as given in US9387257B2, “Lung cancer specific peptides for targeted drug delivery and molecular imaging” (Academia Sinica, priority 2014, dated 2016).
Where no end group is shown, it is not given here.

Tests used:
H460 cells [1] = experiment: Uptake of targeting peptide-conjugated LSRB; type: cell-based, human; conditions: for uptake of LSRB: peptide-conjugated LSRB at high concentration / higher doses; for liposome internalization compared to non-targeting LSRB: peptide-conjugated liposomal SRB, time course, 37° C.
Description: (§1) H460 and H1993 cells were grown on a 24-well plate to 90% confluency, and 20, 10, 5, 2.5, 1.25, 0.625 μM HSP1, 2, 4-liposomal sulforhodamine B (LSRB) or LSRB in complete culture medium was added. The cells were incubated at 37° C., at the following time periods: 10, 30 min, 1, 2, 4, 8, 16 and 24 hours. At the indicated time point, cells were washed with PBS, and non-internalized LSRB on the cell surface was removed by adding 0.1 M Glycine, pH 2.8 for 10 min. Cells were then lysed with 200 μl 1% Triton X-100. Uptake of LD at low concentration in H1993 cells was performed using same protocol. For extraction of SRB or doxorubicin, 300 μl IPA (0.75 N HCl in isopropanol) was added to the lysate and shaken for 30 min. After the lysate was centrifuged at 12,000 rpm for 5 min, the amount of uptakes were determined by measuring Excitation/Emission wavelengths of fluorescence at 520/570 nm for SRB and 485/590 nm for doxorubicin using, a spectrofluorometer (SPECTRAMAX® M5, Molecular Devices). The concentration of SRB and doxambicin were calculated by interpolation using a standard curve.

H1993 cells = experiment: Uptake of targeting peptide-conjugated LSRB; type: cell-based, human; conditions: peptide-conjugated liposomal SRB, time course, 37° C.
Description: as §1

H460 cells [2] = experiment: Endocytosis assay (confocal microscopy); type: cell-based, human; conditions: peptide-conjugated LSRB; 4° C. vs 37° C.
Description: H460 cells were incubated with HSP1, HSP2, HSP4-LSRB or LSRB for 10 min at 4° C. and 37° C. After being washed with PBS, the cells were fixed by 4% paraformaldehyde, blocked by 1% BSA, and then stained with WGA-ALEXA FLUOR® […] and DAPI for cell membrane and nucleus. All fluorescence images were obtained by confocal microscopy.

[3] = tested on: H460 human lung large cell carcinoma xenografts; experiment: Ligand-targeted therapy, lung large cell carcinoma xenograft model; type: in vivo, SCID mice; conditions: large tumor ~500 mm^3; 2 mg/kg/injection i.v. twice a week
Description: Female SCID mice 4-6 weeks of age were injected subcutaneously in the dorsolateral flank with human NSCLC cells. Mice with size-matched tumors (approximately 75 mm^3 for small tumor; 300 or 500 mm^3 for large tumor) were then randomly assigned to different treatment groups, and were injected intravenously with liposomal doxorubicin (LD), liposomal vinorelbine (LV), targeting peptide (HSP1, HSP2 or HSP4)-conjugated LD or LV, free doxorubicin (FD), free vinorelbine (FV) or equivalent volumes of saline. The dosages of drugs and administration time courses were described in figure legends depend on different experiment design. Mouse body weights and tumor sizes were measured twice a week. Tumor volumes were calculated according to this formula: length×(width)^2×0.52. Animal care was carried out in accordance with guidelines of Academia Sinica, Taipei, Taiwan. The protocol was approved by the Committee on the Ethics of Animal Experiments of Academia Sinica.

[4] = tested on: H460 large cell carcinoma cells; experiment: Immunofluorescence staining (IFA) of FITC-labeled peptides; type: cell-based, human; conditions: 10 μg/mL FITC-labeled peptide, fixed H460 cells
Description: (§2) H460 and H1993 cells were seeded and grown to about 50% confluence on cover slips. After the cells had been fixed with 2% paraformaldehyde, they were incubated with 10 μg/mL FITC-labeled HSP1, 2, 4 or control peptides. Then the slides were counterstained with 4′,6-diamidino-2-phenylindole (DAPI), mounted and examined under a Leica universal fluorescent microscope. The images were merged using the MetaMorph Image Analysis Software.

[5] = tested on: H1993 adenocarcinoma cells; experiment: as above; type: cell-based, human; conditions: 10 μg/mL FITC-labeled peptide, fixed H1993 cells
Description: as §2

H460 cells [6] = experiment: In vitro cytotoxicity assay of targeting peptide-conjugated LD (MTT); type: cell-based, human; conditions: for decrease of the half maximal inhibitory concentration (IC50) compared to LD: peptide-conjugated LD at optimal peptide ratio, H460 cells; for reduction in IC50 in vitro: peptide-mediated DDS, summary statement
Description: H460 cells were seeded in 96-well plates (5000 cells/well) in complete culture media and were incubated overnight. Next day, cells were treated with varying concentration (0˜100 μM) of HSP1-LD, HSP2-LD, HSP4-LD or LD at 37° C. for 24 hours; After removal of the excess drug, the cells were washed once with PBS and continued to incubate with fresh culture medium for 48 h at 37° C. The cell viability was measured by adding 50 μl of MTT (Thiazolyl Blue Tetrazolium Bromide; Sigma-Aldrich) to each well of the plate. After 3.5 hours MTT incubation, 150 μl of Dimethyl sulfoxide (DMSO; Mallinckrodt Baker) was added to each well for 10 min, and the absorbance was determined with microplate reader (SPECTRAMAX® M5, Molecular Devices) at 540 nm.

[7] = tested on: human normal bronchial epithelial cell (NL20); experiment: Flow cytometry surface binding of FITC-conjugated peptides to normal cells; type: cell-based; conditions: 20 μg/mL FITC-conjugated peptide, 4° C., 1 hour
Description: (§3) The lung cancer cell lines or control cells were collected using enzyme-free cell dissociation buffer, and then were incubated with 20 μg/mL FITC-conjugated HSP1, 2, 4 or control peptide at 4° C. for 1 hour. After washing, cells were analyzed by flow cytometer.

[8] = tested on: human lung cancer cell lines (H460, H661, H1993, H441, CL1-5, A549, H520, H1688); experiment: Flow cytometry surface binding of FITC-conjugated peptides to lung cancer cell lines; type: cell-based; conditions: 20 μg/mL FITC-conjugated peptide, 4° C., 1 hour; large cell, adeno-, squamous cell and small cell carcinoma lines
Description: as §3

[9] = Pharmacokinetic and biodistribution study in mice bearing H460 xenografts; type: in vivo, SCID mice; conditions: single i.v. dose 2 mg/kg
Description: SCID mice bearing H460 lung cancer xenografts (˜300 mm^3) were injected in the tail vein with either free drug doxorubicin (FD), liposomal doxorubicin (LD), or targeting (HSP1, HSP2 or HSP4) LD at a single dose of 2 mg/kg. At 1 hr and 24 hr post-injection, blood samples were collected through submaxillary punctures before mice were anaesthetized and sacrificed (three mice in each group). Then the mice were perfused with 50 ml PBS through heart, xenograft tumors and organs (brain, lung, heart, liver, and kidney) were dissected, weighted, and homogenized to calculate amount of doxorubicin in tissues. Total doxorubicin was quantified by measuring fluorescence at λEx/Em=485/590 nm using a spectrofluorometer (SPECTRAMAX® M5, Molecular Devices).

[10] = tested on: A549 adenocarcinoma orthotopic model; experiment: Combination therapy in orthotopic lung cancer model; type: in vivo, SCID mice; conditions: HSP4-mediated combinatorial liposomes
Description: SCID mice (6-week-old) were anesthetized with isofloruance mixed with oxygen and placed in the right decubitus position. The skin overlying the left chest wall in the mid-axillary line was prepared with alcohol, and the underlying, chest wall and intercostal spaces were visualized. […] After tumor injection, the mice were turned to left decubitus position and observed for 45 to 60 min until fully recovered.
Luciferase-expressing cancer cells were imaged and quantified using IVIS200 system (Xenogen Corporation, Alameda, Calif.) at 10 minutes after i.p. injection of LUCWERIN™ (Caliper Life Sciences) before drug administration each time.

| half-life in plasma compared to liposomal formulations [9] | Compound | uptake of LSRB (H460 cells [1]) | liposome internalization compared to non-targeting LSRB (H460 cells [1]) | liposome internalization compared to non-targeting LSRB (H1993 cells) | binding versus internalization compared to HSP2 and HSP4 (H460 cells [2]) | therapeutic efficacy of LD [3] | binding of FITC-labeled peptide in cell IFA [4] | binding of FITC-labeled peptide in cell IFA [5] | decrease of the half maximal inhibitory concentration (IC50) compared to LD (H460 cells [6]) [fold] | reduction in IC50 in vitro (H460 cells [6]) | surface binding of FITC-labeled peptide (FACS) [7] | surface binding of FITC-labeled peptide (FACS) [8] | intracellular delivery of LSRB (H460 cells [1]; peptide-conjugated LSRB at low LSRB concentrations) | adverse effect (body weight loss) [10] |
| --- | --- | --- | --- | --- | --- | --- | --- | --- | --- | --- | --- | --- | --- | --- |
| – | GAMHLPWHMGTL (also: FITC label) [HSP1] | better uptake ability | enhanced liposome internalization | enhanced liposome internalization | stronger ability at binding than internalization | significantly improved therapeutic efficacy | can bind to a major group | can bind to a major group | 12.5 | about 10 fold | not to human normal bronchial epithelial cell | prominent binding | – | – |
| much shorter half-life in plasma | COc1cccc2c1C(=O)c1c(O)c3c(c(O)c1C2=O)C[C@@](O)(C(=O)CO)C[C@@H]3O[C@H]1C[C@H](N)[C@H](O)[C@H](C)O1 [FD, doxorubicin] | – | – | – | – | – | – | – | – | – | – | – | – | – |
| – | NPWEEQGYRYSM (also: FITC label) [HSP2] | no difference from non-targeting LSRB | enhanced liposome internalization | enhanced liposome internalization | – | significantly improved therapeutic efficacy | can bind to a major group | can bind to a major group | 13 | about 10 fold | not to human normal bronchial epithelial cell | prominent binding | prominent intracellular delivery | – |
| – | KATEEQLKTVME (control peptide) [reference compound] | – | – | – | – | – | cannot | cannot | – | – | – | – | – | – |
| – | NNPWREMMYIEI [HSP4, NNPWREMMYIEI] | – | – | – | – | – | – | – | – | – | – | – | – | decreasing body weight loss |
